This is an account of results in patent US20240408216A1, “PROTEIN INHIBITOR OR DEGRADING AGENT, PHARMACEUTICAL COMPOSITION CONTAINING SAME AND PHARMACEUTICAL USE” (JING MEDICINE TECHNOLOGY (SHANGHAI) LTD., priority 2021, published 2024).

In the first assay the test system is A431. In words: Cell proliferation IC50 assay (Cell Titer GLO), A431 cells. In kind it is cell-based. Conditions: Homo sapiens, A-431; Table 6; A431, 72 h; read-out: A431 IC50. The essentials: (§1)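 Each cell line, plated at 2000-4000 cells/well, received serially diluted compound for 72 h (37° C, 5% CO2) before luminescent ATP-based viability detection. IC50 values were derived from growth inhibition relative to DMSO-treated and cell-free blank wells.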
A general note: ATP-based viability assays read luminescence as a measure of living cells.
Usually IC50 stands for the midpoint of a concentration-inhibition curve. `CCc1cc(Nc2ncc(Cl)c(Nc3ccccc3P(C)(C)=O)n2)c(OC)cc1N1CCC(N2CCN(CC/C=C\c3cccc4c3CN(C3CCC(=O)NC3=O)C4=O)CC2)CC1` (stereo not drawn) [Example E37]: the IC50 amounted to 1210 nM.

As for `CCc1cc(Nc2ncc(Cl)c(Nc3ccccc3P(C)(C)=O)n2)c(OC)cc1N1CCC(N2C[C@@H](C)N(CCCCOc3cccc4c3CN(C3CCC(=O)NC3=O)C4=O)[C@@H](C)C2)CC1` (stereo partly drawn) [Example E129], the IC50 came out at 1330 nM.

Regarding `CCc1cc(Nc2ncc(-c3cn[nH]c3)c(Nc3ccccc3P(C)(C)=O)n2)c(OC)cc1N1CCC(N2CCN(CCOc3cccc4c3CN(C3CCC(=O)NC3=O)C4=O)CC2)CC1` (stereo not drawn) [Example E167], the half-inhibitory concentration (IC50) worked out at 1100 nM.

As for `CCc1cc(Nc2ncc(Cl)c(Nc3ccccc3P(C)(C)=O)n2)c(OC)cc1N1CCC(N2CCN(C(C)(C)C#Cc3cccc4c3CN(C3CCC(=O)NC3=O)C4=O)CC2)CC1` (stereo not drawn) [Example E156], the IC50 is no less than 1540 nM.

With `CCc1cc(Nc2nc(Nc3ccccc3P(C)(C)=O)c3cc[nH]c3n2)c(OC)cc1N1CCC(N2CCN(CCOc3cccc4c3CN(C3CCC(=O)NC3=O)C4=O)CC2)CC1` (stereo not drawn) [Example E126], the IC50 is greater than 4000 nM.

In the case of `CCc1cc(Nc2nc(Nc3ccccc3P(C)(C)=O)c3cc[nH]c3n2)c(C)cc1N1CCC(N2CCN(CCCCOc3cccc4c3CN(C3CCC(=O)NC3=O)C4=O)CC2)CC1` (stereo not drawn) [Example E140], the IC50 is greater than 4000 nM.

A further assay concerns BaF3 (EGFR WT). In words: Cell proliferation IC50 assay (Cell Titer GLO), BaF3 WT cells. In kind it is cell-based. To be noted: Mus musculus, Ba/F3 EGFR, Table 6, 10 ng/ml EGF, 72 h. The essentials: as §1
`CCc1cc(Nc2ncc(Cl)c(Nc3ccccc3P(C)(C)=O)n2)c(OC)cc1N1CCC(N2CCN(CC/C=C\c3cccc4c3CN(C3CCC(=O)NC3=O)C4=O)CC2)CC1` (stereo not drawn) [Example E37] gave a concentration for half-maximal inhibition (IC50) of 1070 nM.

The compound `CCc1cc(Nc2ncc(Cl)c(Nc3ccccc3P(C)(C)=O)n2)c(OC)cc1N1CCC(N2C[C@@H](C)N(CCCCOc3cccc4c3CN(C3CCC(=O)NC3=O)C4=O)[C@@H](C)C2)CC1` (stereo partly drawn) [Example E129] gave an IC50 of 889 nM.

Consider `CCc1cc(Nc2ncc(-c3cn[nH]c3)c(Nc3ccccc3P(C)(C)=O)n2)c(OC)cc1N1CCC(N2CCN(CCOc3cccc4c3CN(C3CCC(=O)NC3=O)C4=O)CC2)CC1` (stereo not drawn) [Example E167], for which the IC50 came out at 975 nM.

As for `CCc1cc(Nc2ncc(Cl)c(Nc3ccccc3P(C)(C)=O)n2)c(OC)cc1N1CCC(N2CCN(C(C)(C)C#Cc3cccc4c3CN(C3CCC(=O)NC3=O)C4=O)CC2)CC1` (stereo not drawn) [Example E156], the concentration for half-maximal inhibition (IC50) was greater than 4000 nM.

In the case of `CCc1cc(Nc2nc(Nc3ccccc3P(C)(C)=O)c3cc[nH]c3n2)c(OC)cc1N1CCC(N2CCN(CCOc3cccc4c3CN(C3CCC(=O)NC3=O)C4=O)CC2)CC1` (stereo not drawn) [Example E126], the IC50 was greater than 4000 nM.

Compound `CCc1cc(Nc2nc(Nc3ccccc3P(C)(C)=O)c3cc[nH]c3n2)c(C)cc1N1CCC(N2CCN(CCCCOc3cccc4c3CN(C3CCC(=O)NC3=O)C4=O)CC2)CC1` (stereo not drawn) [Example E140] came in with a half-inhibitory concentration (IC50) greater than 4000 nM.

In a further assay the target is T1, BaF3 (EGFR Del19/C797S) (Homo sapiens, UniProt P00533, C797S, cells depend on it, form not given).
T1 construct: BaF3 (EGFR Del19/C797S)|DC|RPMI1640 + 10% FBS
T1 sequence (P00533 with tags, fused parts or gaps DEL746-750/C797S, form open): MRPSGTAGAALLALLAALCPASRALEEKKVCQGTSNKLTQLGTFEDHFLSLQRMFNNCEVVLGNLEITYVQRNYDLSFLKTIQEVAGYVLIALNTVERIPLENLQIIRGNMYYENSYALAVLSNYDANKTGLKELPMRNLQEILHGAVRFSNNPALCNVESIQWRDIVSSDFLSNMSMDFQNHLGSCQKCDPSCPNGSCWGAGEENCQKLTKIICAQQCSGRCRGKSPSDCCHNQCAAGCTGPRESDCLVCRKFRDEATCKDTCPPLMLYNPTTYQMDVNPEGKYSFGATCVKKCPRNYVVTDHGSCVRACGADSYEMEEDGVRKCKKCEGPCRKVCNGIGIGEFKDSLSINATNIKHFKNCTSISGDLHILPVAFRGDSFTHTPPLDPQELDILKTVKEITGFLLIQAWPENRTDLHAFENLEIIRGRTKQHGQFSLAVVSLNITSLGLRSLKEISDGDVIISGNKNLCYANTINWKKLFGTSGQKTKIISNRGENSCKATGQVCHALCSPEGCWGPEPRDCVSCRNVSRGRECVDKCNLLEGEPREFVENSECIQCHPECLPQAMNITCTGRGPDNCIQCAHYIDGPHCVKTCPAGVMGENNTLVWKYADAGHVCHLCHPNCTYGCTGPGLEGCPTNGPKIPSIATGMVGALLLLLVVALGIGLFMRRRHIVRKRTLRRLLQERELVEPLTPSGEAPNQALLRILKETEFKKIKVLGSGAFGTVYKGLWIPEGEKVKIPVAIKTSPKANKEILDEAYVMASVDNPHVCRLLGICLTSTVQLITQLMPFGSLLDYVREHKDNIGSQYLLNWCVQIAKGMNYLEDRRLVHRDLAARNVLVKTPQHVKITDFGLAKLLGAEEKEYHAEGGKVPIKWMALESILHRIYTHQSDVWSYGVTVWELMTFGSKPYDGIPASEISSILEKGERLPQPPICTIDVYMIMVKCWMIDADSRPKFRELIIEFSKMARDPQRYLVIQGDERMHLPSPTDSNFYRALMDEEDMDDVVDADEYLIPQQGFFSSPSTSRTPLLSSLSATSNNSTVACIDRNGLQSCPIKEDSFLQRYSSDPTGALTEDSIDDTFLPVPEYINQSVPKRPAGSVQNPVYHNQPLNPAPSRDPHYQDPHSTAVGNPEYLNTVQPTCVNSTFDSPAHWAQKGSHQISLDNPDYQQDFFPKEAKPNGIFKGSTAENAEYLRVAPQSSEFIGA
In words: Cell proliferation IC50 assay (Cell Titer GLO), BaF3 DC cells. The format is cell-based, mouse. Conditions: Table 6, 72 h. The procedure, abridged:
as §1
As for `CCc1cc(Nc2ncc(Cl)c(Nc3ccccc3P(C)(C)=O)n2)c(OC)cc1N1CCC(N2CCN(CC/C=C\c3cccc4c3CN(C3CCC(=O)NC3=O)C4=O)CC2)CC1` (stereo not drawn) [Example E37], inhibition was half-maximal at 3.1 nM (IC50).

In the case of `CCc1cc(Nc2ncc(Cl)c(Nc3ccccc3P(C)(C)=O)n2)c(OC)cc1N1CCC(N2C[C@@H](C)N(CCCCOc3cccc4c3CN(C3CCC(=O)NC3=O)C4=O)[C@@H](C)C2)CC1` (stereo partly drawn) [Example E129], the IC50 amounted to 3.3 nM.

Turning to `CCc1cc(Nc2ncc(-c3cn[nH]c3)c(Nc3ccccc3P(C)(C)=O)n2)c(OC)cc1N1CCC(N2CCN(CCOc3cccc4c3CN(C3CCC(=O)NC3=O)C4=O)CC2)CC1` (stereo not drawn) [Example E167], the IC50 turned out to be 1.5 nM.

Take `CCc1cc(Nc2ncc(Cl)c(Nc3ccccc3P(C)(C)=O)n2)c(OC)cc1N1CCC(N2CCN(C(C)(C)C#Cc3cccc4c3CN(C3CCC(=O)NC3=O)C4=O)CC2)CC1` (stereo not drawn) [Example E156]: the IC50 was 16.7 nM.

`CCc1cc(Nc2nc(Nc3ccccc3P(C)(C)=O)c3cc[nH]c3n2)c(OC)cc1N1CCC(N2CCN(CCOc3cccc4c3CN(C3CCC(=O)NC3=O)C4=O)CC2)CC1` (stereo not drawn) [Example E126] showed an IC50 of 44 nM.

Compound `CCc1cc(Nc2nc(Nc3ccccc3P(C)(C)=O)c3cc[nH]c3n2)c(C)cc1N1CCC(N2CCN(CCCCOc3cccc4c3CN(C3CCC(=O)NC3=O)C4=O)CC2)CC1` (stereo not drawn) [Example E140] returned an IC50 of 8.1 nM.

In a further assay the test system is BaF3 (EGFR Del19/T790M/C797S). Nature of the assay: Cell proliferation IC50 assay (Cell Titer GLO), BaF3 DTC cells. In kind it is cell-based. To be noted: Mus musculus, Ba/F3 EGFR-Del19/T790M/C797S, Table 6, 72 h. The procedure:
IC50 of compounds in the present invention was determined by Cell Titer GLO reagent from Promega. The procedures are as follows:
Tumor cells were cultured in specified medium in an incubator at 37° C. and 5% CO2. The cells were passaged periodically. Cells at the logarithmic growth phase were collected for plating at a density of 2000-4000 cells/well. The next day, the compounds of the present invention were serially diluted and added to the cells, with DMSO being the negative control and the culture media without cells being the blank control. The plate was incubated in the incubator for 72 h. The cell viability assay was performed by adding the detection reagents to the cell culture media according to Cell Titer GLO reagent instructions and detecting luminescent signals on an EnVision microplate reader (PerkinElmer).
Inhibition of cell growth by the compounds of the present invention was plotted by Prism Graphpad software for statistically calculating the IC50 of the compound of the present invention.
As to `CCc1cc(Nc2ncc(Cl)c(Nc3ccccc3P(C)(C)=O)n2)c(OC)cc1N1CCC(N2CCN(CC/C=C\c3cccc4c3CN(C3CCC(=O)NC3=O)C4=O)CC2)CC1` (stereo not drawn) [Example E37], the concentration for half-maximal inhibition (IC50) was determined as 4.84 nM.

In the case of `CCc1cc(Nc2ncc(Cl)c(Nc3ccccc3P(C)(C)=O)n2)c(OC)cc1N1CCC(N2C[C@@H](C)N(CCCCOc3cccc4c3CN(C3CCC(=O)NC3=O)C4=O)[C@@H](C)C2)CC1` (stereo partly drawn) [Example E129], the IC50 worked out at 6.13 nM.

Compound `CCc1cc(Nc2ncc(-c3cn[nH]c3)c(Nc3ccccc3P(C)(C)=O)n2)c(OC)cc1N1CCC(N2CCN(CCOc3cccc4c3CN(C3CCC(=O)NC3=O)C4=O)CC2)CC1` (stereo not drawn) [Example E167] returned an IC50 of 37.8 nM.

For `CCc1cc(Nc2ncc(Cl)c(Nc3ccccc3P(C)(C)=O)n2)c(OC)cc1N1CCC(N2CCN(C(C)(C)C#Cc3cccc4c3CN(C3CCC(=O)NC3=O)C4=O)CC2)CC1` (stereo not drawn) [Example E156], the half-maximal inhibitory concentration (IC50) was found to be 10.7 nM.

As for `CCc1cc(Nc2nc(Nc3ccccc3P(C)(C)=O)c3cc[nH]c3n2)c(OC)cc1N1CCC(N2CCN(CCOc3cccc4c3CN(C3CCC(=O)NC3=O)C4=O)CC2)CC1` (stereo not drawn) [Example E126], 18.9 nM corresponded to half-maximal inhibition (IC50).

Turning to `CCc1cc(Nc2nc(Nc3ccccc3P(C)(C)=O)c3cc[nH]c3n2)c(C)cc1N1CCC(N2CCN(CCCCOc3cccc4c3CN(C3CCC(=O)NC3=O)C4=O)CC2)CC1` (stereo not drawn) [Example E140], 7.97 nM corresponded to half-maximal inhibition (IC50).

Another assay concerns BaF3 (EGFR L858R/T790M/C797S). Nature of the assay: Cell proliferation IC50 assay (Cell Titer GLO), BaF3 LTC cells. The format is cell-based. Conditions: Mus musculus, Ba/F3 EGFR, Table 6, 72 h. The essentials:
as §1
`CCc1cc(Nc2ncc(Cl)c(Nc3ccccc3P(C)(C)=O)n2)c(OC)cc1N1CCC(N2CCN(CC/C=C\c3cccc4c3CN(C3CCC(=O)NC3=O)C4=O)CC2)CC1` (stereo not drawn) [Example E37] gave an IC50 of 15.3 nM.

The compound `CCc1cc(Nc2ncc(Cl)c(Nc3ccccc3P(C)(C)=O)n2)c(OC)cc1N1CCC(N2C[C@@H](C)N(CCCCOc3cccc4c3CN(C3CCC(=O)NC3=O)C4=O)[C@@H](C)C2)CC1` (stereo partly drawn) [Example E129] registered an IC50 of 47.7 nM.

As for `CCc1cc(Nc2ncc(-c3cn[nH]c3)c(Nc3ccccc3P(C)(C)=O)n2)c(OC)cc1N1CCC(N2CCN(CCOc3cccc4c3CN(C3CCC(=O)NC3=O)C4=O)CC2)CC1` (stereo not drawn) [Example E167], the midpoint of inhibition, the IC50, lay at 3050 nM.

The compound `CCc1cc(Nc2ncc(Cl)c(Nc3ccccc3P(C)(C)=O)n2)c(OC)cc1N1CCC(N2CCN(C(C)(C)C#Cc3cccc4c3CN(C3CCC(=O)NC3=O)C4=O)CC2)CC1` (stereo not drawn) [Example E156] returned an IC50 of 218 nM.

Compound `CCc1cc(Nc2nc(Nc3ccccc3P(C)(C)=O)c3cc[nH]c3n2)c(OC)cc1N1CCC(N2CCN(CCOc3cccc4c3CN(C3CCC(=O)NC3=O)C4=O)CC2)CC1` (stereo not drawn) [Example E126] displayed an IC50 of 72.3 nM.

`CCc1cc(Nc2nc(Nc3ccccc3P(C)(C)=O)c3cc[nH]c3n2)c(C)cc1N1CCC(N2CCN(CCCCOc3cccc4c3CN(C3CCC(=O)NC3=O)C4=O)CC2)CC1` (stereo not drawn) [Example E140] had an IC50 of 54.6 nM.
